Columns and labels:
Format in all cases: cell-based
HBeAg = test: PHH natural infection assay, HBeAg (alphalisa); conditions: Hepatitis B virus, Hepatocyte, 72 h, read-out: HBeAg IC50
Description: (§1) Detailed procedures regarding primary human hepatocyte (PHH) HBV natural infection assay are described as below. One tube of frozen PHH (10 million cells) is thawed in 37° C. water bath and then transferred to 20 mL of PHH thawing medium (Sigma, InVitroGRO HT Medium, Cat. S03319) with gently mixing. The cells were then centrifuged at […] for 5 min, the supernatant was discarded and the tube was refilled with 25 mL of PHH plating medium (Sigma, InVitroGRO CP Medium, Cat. S03317). The tube was shaken very gently to re-suspend all cells, and then 50 µl of cells were transferred to each well 384-well collagen I coated plate with appropriate liquid handling equipment, e.g. Integra VIAFLO384 or Agilent Bravo. The cells were then cultured for 24 hours in a cell incubator. For HBV infection, after PHH attachment on the culture plate, the plating medium was removed and replenished with PHH culture medium containing HBV virus. The PHH culture medium was prepared with Dulbecco’s Modified Eagle Medium (DMEM)/F12 (1: 1 in volume ratio) containing 10% fetal bovine serum (Gibco, Cat.10099141), 5 ng/mL human epidermal growth factor (Gibco, Cat.PHG0311L), 20 ng/mL dexamethasone (Sigma, Cat.D4902-100 mg), 250 ng/mL human recombinant insulin (Gibco, Cat.41400045) and 100 U/mL penicillin. HBV virus at 200 genome equivalent (GE) per cell with 4% PEG8000 (Sigma, Cat.P1458) containing culture medium were added to the PHH culture medium for infection. The cells were then cultured for 24 hours in cell incubator. Then the cell culture supernatant was removed. The HBV-infected PHH were cultured with sandwich culture method with PHH culture medium containing 1% DMSO and 0.25 mg/mL matrix gel for 72 hours. The supernatant was then refreshed with PHH culture medium containing different concentrations of testing compounds for two times with 72-hour interval. At the end of treatment, the supernatant was collected for viral markers measurements, including HBsAg, HBeAg, HBV DNA and cytotoxicity. HBsAg and HBeAg were detected using alphalisa method using their specific antibodies. For HBV DNA detection, HBV DNA Quantitative Fluorescence Diagnostic Kit (Sansure Biotech Inc.) was used following the manufacture’s protocol. Cytotoxicity was determined using Cell Counting Kit-8 (CCK8, Dojindo Molecular Technologies, Inc.).
(§2) The compounds of the present invention were tested for their capacity to inhibit HBsAg and HBeAg as described herein.

[1] = PHH natural infection assay, cytotoxicity (Cell Counting Kit-8); conditions: HBV-infected primary human hepatocytes, CCK8
Description: as §1

HBsAg = test: PHH natural infection assay, HBsAg (alphalisa); conditions: Hepatitis B virus, Hepatocyte, 72 h, read-out: HBsAg IC50
Description: as §1, §2

SMILES | IC50 (HBeAg) | CC50 at 144 h [1] | IC50 (HBsAg)
CC(C)(C)C(=O)Nc1ccc(-c2nnc(-c3ccccc3)o2)cc1 [Example 28, 2,2-dimethyl-N-[4-(5-phenyl-1,3,4-oxadiazol-2-yl)phenyl]propanamide] | 4.23 µM | > 100 µM | 7.65 µM
CC(C)(C)CC(=O)Nc1ccc(-c2nnc(-c3ccccc3)o2)cc1 [Example 29, 3,3-dimethyl-N-[4-(5-phenyl-1,3,4-oxadiazol-2-yl)phenyl]butanamide] | 9.57 µM | > 100 µM | 5.1 µM
Cc1cc(-c2nnc(-c3ccccc3)o2)ccc1N [Example 30, 2-methyl-4-(5-phenyl-1,3,4-oxadiazol-2-yl)aniline] | 3.21 µM | > 100 µM | 1.43 µM
COc1cc(-c2nnc(-c3ccccc3)o2)ccc1N [Example 31, 2-Methoxy-4-(5-phenyl-1,3,4-oxadiazol-2-yl)aniline] | 4.17 µM | > 100 µM | 1.49 µM
Nc1ccc(-c2nnc(-c3ccccc3)o2)cc1F [Example 32, 2-Fluoro-4-(5-phenyl-1,3,4-oxadiazol-2-yl)aniline] | 2.81 µM | > 100 µM | 2.39 µM
CN(C)c1ccc(-c2nnc(-c3ccccc3)o2)cc1 [Example 33, N,N-dimethyl-4-(5-phenyl-1,3,4-oxadiazol-2-yl)aniline] | 91.7 µM | > 100 µM | 7.69 µM
